Measured values taken from the supplement of paper PMC4932681.
Where a name gives a salt, the structure may show the parent alone.

How the values were obtained:
Test in all cases: viability inhibition at highest dose (% inhibition); higher = more growth inhibition
T-47D Tam1 = details: 4-OH-tamoxifen in medium 1 µM; 72 h
Procedure: (§1)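 Percent inhibition of viability (CellTiter-Glo, 72 h) at the highest tested concentration (D5), normalised to DMSO (0%) and 100 µM benzethonium chloride (100%). Resistant lines and the 'in 1µM tamoxifen' arms were tested in 1 µM 4-OH-tamoxifen.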

MCF-7 = details: 72 h
Procedure: as §1

ZR-75-1 Tam1 = details: 4-OH-tamoxifen in medium 1 µM; 72 h
Procedure: as §1

BT-474 Tam1 = details: 4-OH-tamoxifen in medium 1 µM; 72 h
Procedure: as §1

ZR-75-1 Tam2 = details: 4-OH-tamoxifen in medium 1 µM; 72 h
Procedure: as §1

MCF-7 Tam1 = details: 4-OH-tamoxifen in medium 1 µM; 72 h
Procedure: as §1

BT-474 Tam2 = details: 4-OH-tamoxifen in medium 1 µM; 72 h
Procedure: as §1

ZR-75-1 = details: 72 h
Procedure: as §1

T-47D Tam2 = details: 4-OH-tamoxifen in medium 1 µM; 72 h
Procedure: as §1

T-47D = details: 72 h
Procedure: as §1

BT-474 = details: 72 h
Procedure: as §1

Row | SMILES | viability inhibition at highest dose (T-47D Tam1) | viability inhibition at highest dose (MCF-7; 4-OH-tamoxifen in medium 0 µM) | viability inhibition at highest dose (MCF-7; 4-OH-tamoxifen in medium 1 µM) | viability inhibition at highest dose (ZR-75-1 Tam1) | viability inhibition at highest dose (BT-474 Tam1) | viability inhibition at highest dose (ZR-75-1 Tam2) | viability inhibition at highest dose (MCF-7 Tam1) | viability inhibition at highest dose (BT-474 Tam2) | viability inhibition at highest dose (ZR-75-1; 4-OH-tamoxifen in medium 0 µM) | viability inhibition at highest dose (ZR-75-1; 4-OH-tamoxifen in medium 1 µM) | viability inhibition at highest dose (T-47D Tam2) | viability inhibition at highest dose (T-47D; 4-OH-tamoxifen in medium 0 µM) | viability inhibition at highest dose (T-47D; 4-OH-tamoxifen in medium 1 µM) | viability inhibition at highest dose (BT-474; 4-OH-tamoxifen in medium 0 µM) | viability inhibition at highest dose (BT-474; 4-OH-tamoxifen in medium 1 µM)
1 | O=C(O)CCCc1ccc(N(CCCl)CCCl)cc1 [Chlorambucil] (drug 10000 nM) | -7.66 | 2.18 | -4.5 | 3.96 | -1.33 | -11.1 | -8.39 | -11.1 | -4.67 | -2.49 | 9.69 | -20.9 | 1.91 | -5.56 | -5.81
2 | CCN(CC)CCCC(C)Nc1ccnc2cc(Cl)ccc12 (stereo not given) [Chloroquine] (drug 990000 nM) | 3.21 | -2.81 | 0.449 | 0.712 | 19 | 6.98 | -1.25 | 7.83 | -2.67 | -3.36 | -12.2 | -0.514 | -3.72 | -6.4 | -13.3
3 | N.N.[Cl][Pt][Cl] [Cisplatin] (drug 10000 nM) | -3.02 | -20.9 | 0.697 | 3.43 | -9.25 | -1.7 | 3.44 | 2.59 | -8.66 | -5.04 | 8.3 | -16.1 | -8.72 | -3.72 | -4.53
4 | Nc1nc(Cl)nc2c1ncn2[C@H]1C[C@H](O)[C@@H](CO)O1 [Cladribine] (drug 1000 nM) | 25.8 | -15.2 | 6.39 | 21 | -9.7 | 20 | -0.292 | -11.6 | 15.2 | 15.8 | 11.4 | -1.69 | -2.3 | -15.8 | -9.47
5 | O=P1(N(CCCl)CCCl)NCCCO1 (stereo not given) [Clafen (Cyclophosphamide, Endoxan)] (drug 40000 nM) | -3.65 | -6.33 | 11 | 7.03 | -0.665 | -3.35 | 1.76 | 2.47 | -3.78 | -1.89 | 11.9 | -14 | -13.7 | -4.59 | -11.3
6 | Nc1nc(Cl)nc2c1ncn2[C@@H]1O[C@H](CO)[C@@H](O)[C@@H]1F [Clofarabine] (drug 10000 nM) | 38.6 | 32.2 | 10.4 | 23.6 | -21.8 | 22.2 | -1.02 | -3.66 | 21.8 | 14.8 | 27.8 | 35.1 | 43 | -7.9 | -34.5
7 | CCN(CC)CCOc1ccc(C(=C(Cl)c2ccccc2)c2ccccc2)cc1 [Clomifene citrate] (drug 10000 nM) | 40.8 | 12.8 | 85.5 | 24.1 | 86.8 | 42.3 | 57.7 | 97.3 | 23.4 | 36.7 | 48.9 | 21.6 | 26.1 | 85.5 | 84
8 | C[C@@H](Oc1cc(-c2cnn(C3CCNCC3)c2)cnc1N)c1c(Cl)ccc(F)c1Cl [Crizotinib] (drug 1000 nM) | 0.597 | 0.562 | 6.55 | 0.927 | 4.07 | 0.924 | -0.481 | 7.24 | -7.38 | -5.41 | 2.79 | -19.1 | -7.52 | -4.38 | -15.8
9 | CC1=C2C[C@H]3[C@@H](CC=C4C[C@@H](O)CC[C@@]43C)[C@@H]2CC[C@]12O[C@@H]1C[C@H](C)CN[C@H]1[C@H]2C [Cyclopamine] (drug 10000 nM) | -2.15 | -20.5 | -1.78 | -2.07 | 0.632 | -6.35 | -8.03 | -2.39 | -9.96 | -4.21 | 1.98 | -17.5 | -14 | -4.32 | -7.93
10 | Nc1ccn([C@@H]2O[C@H](CO)[C@@H](O)[C@@H]2O)c(=O)n1 [Cytarabine] (drug 10000 nM) | 30.6 | 29.1 | 12 | 28.3 | 22.1 | 27.4 | 6.46 | 1.43 | 39.3 | 13 | -16.3 | 36.9 | 6.47 | -5.7 | 11
11 | CN(C)/N=N/c1[nH]cnc1C(N)=O [Dacarbazine] (drug 10000 nM) | -0.257 | -17 | 10.7 | 0.27 | -7.07 | 6.57 | -11.3 | 6.76 | -2.8 | -13 | -1.82 | -8.78 | -10 | -13 | -17.3
12 | Cc1c2oc3c(C)ccc(C(=O)N[C@@H]4C(=O)N[C@H](C(C)C)C(=O)N5CCC[C@H]5C(=O)N(C)CC(=O)N(C)[C@@H](C(C)C)C(=O)O[C@@H]4C)c3nc-2c(C(=O)N[C@@H]2C(=O)N[C@H](C(C)C)C(=O)N3CCC[C@H]3C(=O)N(C)CC(=O)N(C)[C@@H](C(C)C)C(=O)O[C@@H]2C)c(N)c1=O [Dactinomycin] (drug 1000 nM) | 63.4 | 74.5 | 72.2 | 55.6 | 95.6 | 60.9 | 61.6 | 88.4 | 45.4 | 53.8 | 62.7 | 49.2 | 31.5 | 36.7 | 81.9
13 | Cn1c(=O)n(-c2ccc(C(C)(C)C#N)cc2)c2c3cc(-c4cnc5ccccc5c4)ccc3ncc21 [Dactolisib (NVP-BEZ235)] (drug 1000 nM) | 49.1 | 67.7 | 45 | 49.4 | 40.8 | 57 | 32.4 | 29.2 | 51 | 41.8 | 29.7 | 54.9 | 69.7 | 27.6 | 39.4
14 | O=C(/C=C/c1cccnc1)NCCCCC1CCN(C(=O)c2ccccc2)CC1 [Daporinad (FK-866 HCl)] (drug 1000 nM) | 91.9 | 76.6 | 67.9 | -12.7 | 47.2 | 0.891 | -5.53 | 17.4 | -2.09 | -11.5 | 85.3 | 92.2 | 90.2 | 12.2 | 64.7
